Results published in patent US20110230493A1, “1-OXA-8-Azaspiro [4,5] Decabe-8-Carboxamide Compounds as FAAH Inhibitors” (Pfizer Inc., priority 2008, published 2011).
Marks after values point to notes of the source that are not given here.

Legend:
[1] = molecular target: T1, human FAAH (Homo sapiens, UniProt O00519); test: FAAH assay, human FAAH enzyme inactivation (kinact/Ki); assay type: biochemical; conditions: oleamide 50 μM, 30° C.; for kinact/KI: pH 7.4, in vitro, read-out: hFAAH kinact/Ki; for hFAAH kinact/Ki: in vitro, pH 7.4
T1 construct: made in house; host or cells: E. coli
T1 sequence (O00519 1-579): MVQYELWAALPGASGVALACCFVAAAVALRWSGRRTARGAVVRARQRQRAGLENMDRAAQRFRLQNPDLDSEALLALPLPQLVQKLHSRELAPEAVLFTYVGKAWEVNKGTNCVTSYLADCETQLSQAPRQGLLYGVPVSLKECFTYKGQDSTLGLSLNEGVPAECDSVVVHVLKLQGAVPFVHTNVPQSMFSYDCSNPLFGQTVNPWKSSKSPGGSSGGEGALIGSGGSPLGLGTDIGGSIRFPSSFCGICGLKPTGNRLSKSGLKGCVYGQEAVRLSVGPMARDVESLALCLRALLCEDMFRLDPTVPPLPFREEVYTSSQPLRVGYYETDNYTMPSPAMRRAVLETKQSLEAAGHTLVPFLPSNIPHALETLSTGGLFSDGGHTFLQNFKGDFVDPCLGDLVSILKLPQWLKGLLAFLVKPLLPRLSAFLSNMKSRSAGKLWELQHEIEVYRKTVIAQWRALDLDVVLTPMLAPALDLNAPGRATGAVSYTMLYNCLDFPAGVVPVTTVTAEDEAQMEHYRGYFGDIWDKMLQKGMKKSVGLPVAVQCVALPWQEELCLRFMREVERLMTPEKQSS
Procedure: (§1) The FAAH assay was carried out in 384-well clear polystyrene plates (Evergreen Scientific) in a total volume of 50 μl per well in a manner similar to that described by Mileni et al., Proc. Nat. Acad. Sci. 2008, 105, 12820-12824. All percents are by volume. Serial dilutions of compound were initially prepared in 100% DMSO, and then diluted two-fold into HPLC-grade H2O to give 50% DMSO. To each well, was placed the reaction mixture (40 μl) containing 1-4 nM FAAH, 50 mM NaPi, pH 7.4, 3 mM α-ketoglutarate, 0.15 mM NADH, 7.5 U/ml glutamate dehydrogenase, 2 mM ADP, 1 mM EDTA, and 0.1% Triton X-100 (The concentration shown for each component is the final concentration in the assay). To this mixture, was added 5 μl of a compound of Examples 1 to 101 at various concentrations in 50% DMSO (or 5 μl 50% DMSO for controls). This was immediately followed by the addition of 5 μl oleamide (500 μM) dissolved in 75% EtOH/25% DMSO and the reaction mixture was mixed for 1.5 min. The final concentrations of DMSO and EtOH in the assay were each 7.5%. The reactions were incubated at 30° C. and the absorbance at 340 nm was collected over a period of 90 min with readings taken in 30-second intervals using SpectraMax Plus^384 Microplate Spectrophotometer (Molecular Devices, Sunnyvale, Calif.). The human FAAH and rat FAAH used in the assay was prepared as described in the patent application WO 2006/067613 using wild-type E. coli cells transformed in St. Louis, Mo., U.S.A. The purity of the enzyme was greater than 98% based on an analysis by SDS-polyacrylamide gel electrophoresis followed by Coomassie Blue staining.
(§2) Reaction progress curves were corrected for the non-enzymatic oxidation of NADH by subtraction of absorbancies at each time point obtained from control reactions containing no FAAH enzyme. The loss of enzyme activity as a function of time is well-described by the following mathematical equation (1) for a mono-exponential decay: […]
(§3) where At represents the absorbance at time t, A0 represents the absorbance at time zero, and C represents a constant. Observed rates of enzyme inactivation (kobs) were determined from the non-linear reaction progress curves by fitting the corrected absorbancies to an equation for a mono-exponential decay using the third-party Microsoft Excel plug-in, XLfit (IDBS Limited). Secondary plots of kobs vs. inhibitor concentration were prepared from kobs values obtained from progress curves. Second-order rates for enzyme inactivation, expressed as kinact/Ki (M^−1 s^−1), were calculated from the slopes from linear regression analysis of the secondary plot of kobs vs. inhibitor concentration as defined in following equation (2), where [I]<<Ki:
(§4) The concentration of substrate in the assay was equal to the Km for oleamide of 50 μM. Therefore, reported kinact/Ki values are obtained by multiplying resulting slopes by a factor of two (i.e. slope=kinact/(Ki*2)).
(§5) Table 1, below, lists human FAAH (hFAAH) and rat FAAH (rFAAH) enzyme inhibition values for Examples 1-101 as a ratio of kinact/Ki (M^−1 s^−1).

[2] = test system: Male Sprague-Dawley Rats; test: In vivo Complete Freund's Adjuvant (CFA) efficacy assay, inhibition of allodynia; design: species or system rat; key: (+) indicates the test compound was determined to be efficacious at 3 mpk, oral dosing; (−) indicates the test compound was determined to not be efficacious at 3 mpk, oral dosing; conditions: p < 0.05 vs vehicle group
Procedure: For additional information on the CFA efficacy assay, see Jayamanne et al., Brit. J. Pharmacol. 2006, 147, 281-288. Experiments were performed on adult Male Sprague-Dawley Rats (200 g-250 g). Inflammation was induced in the left hindpaw of the rat by an intra-plantar injection of 150 uL Complete Freund's Adjuvant (CFA) (SIGMA F5881). The CFA injection immediately induces local inflammation, paw swelling, and pain that persists for at least two weeks post-injection. Baseline paw withdrawal threshold (PWT) was measured to determine the percent inhibition of allodynia using a set of Von Frey Hairs on day 4 post injection as illustrated by the Dixon Up and Down Method (W. J. Dixon, Ann. Rev. Pharmacol. Toxicol. 1980, 20:441-462). […] Following Dose administration PWT threshold was evaluated again at four hours postdose. The Sprague-Dawley rats used in this assay were purchased from Harlan, 8520 Allison Pointe Blvd., Indianapolis, Ind., 46250, U.S.A. Sprague-Dawley rats are an outbred breed of albino rats first produced by the Sprague Dawley farms in Madison, Wis., U.S.A.
Percent Inhibition of Allodynia was determined by the formula: […]
ΔPWT measurements were averaged for each treatment group and statistical comparisons between groups were made using ANOVA and Dunnett's two-tailed test. […]

[3] = molecular target: T2, rat FAAH (Rattus norvegicus, UniProt P97612); test: FAAH assay, rat FAAH enzyme inactivation (kinact/Ki); assay type: biochemical; conditions: oleamide 50 μM, 30° C.; for kinact/KI: pH 7.4, in vitro, read-out: rFAAH kinact/Ki; for rFAAH kinact/Ki: in vitro, pH 7.4
T2 construct: made in house; host or cells: E. coli
T2 sequence (P97612 1-579): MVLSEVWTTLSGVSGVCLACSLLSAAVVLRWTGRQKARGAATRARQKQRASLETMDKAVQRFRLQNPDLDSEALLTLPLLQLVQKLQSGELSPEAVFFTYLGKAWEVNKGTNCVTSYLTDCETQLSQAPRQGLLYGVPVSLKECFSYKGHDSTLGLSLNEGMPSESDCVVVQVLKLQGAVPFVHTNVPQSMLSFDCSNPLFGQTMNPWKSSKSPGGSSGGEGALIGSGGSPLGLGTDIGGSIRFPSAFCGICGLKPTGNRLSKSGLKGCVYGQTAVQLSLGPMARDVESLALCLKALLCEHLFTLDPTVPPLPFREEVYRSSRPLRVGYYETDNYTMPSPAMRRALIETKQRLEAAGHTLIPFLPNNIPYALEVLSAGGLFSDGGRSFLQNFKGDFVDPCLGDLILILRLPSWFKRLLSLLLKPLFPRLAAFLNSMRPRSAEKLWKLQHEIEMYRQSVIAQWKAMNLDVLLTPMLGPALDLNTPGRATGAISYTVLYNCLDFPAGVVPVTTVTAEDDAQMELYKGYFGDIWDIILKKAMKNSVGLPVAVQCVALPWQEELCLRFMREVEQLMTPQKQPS
Procedure: as §1, §2, §3, §4, §5

[4] = 3 mpk, oral dosing, PWT four hours postdose

Structure (SMILES): O=C(Nc1cccnn1)N1CCC2(CC1)CC(c1cccc(Oc3ccc(C(F)(F)F)cn3)c1)CO2 (racemic) [Example 1, (3RS)—N-pyridazin-3-yl-3-(3-{[5-(trifluoromethyl)pyridin-2-yl]oxy}phenyl)-1-oxa-8-azaspiro[4.5]decane-8-carboxamide]
- kinact/KI [1]: 3130 M⁻¹ s⁻¹
- CFA Efficacy ([2]; 25 mpk, intraperitoneal dosing): (+)^d
- kinact/KI [3]: 1880 M⁻¹ s⁻¹

Structure (SMILES): Cc1noc(NC(=O)N2CCC3(CC2)CC(c2cccc(OC(F)(F)F)c2)CO3)c1C (single isomer, unassigned) [Example 33, N-(3,4-dimethylisoxazol-5-yl)-3-[3-(trifluoromethoxy)phenyl]-1-oxa-8-azaspiro[4.5]decane-8-carboxamide]
- kinact/KI [1]: 3420 M⁻¹ s⁻¹
- CFA Efficacy [2, 4]: (+)
- kinact/KI [3]: 4070 M⁻¹ s⁻¹

Structure (SMILES): Cc1noc(NC(=O)N2CCC3(CC2)CC(c2cccc(OC(F)(F)F)c2)CO3)c1C (single isomer, unassigned) [Example 34, N-(3,4-dimethylisoxazol-5-yl)-3-[3-(trifluoromethoxy)phenyl]-1-oxa-8-azaspiro[4.5]decane-8-carboxamide]
- hFAAH kinact/Ki [1]: 1840 M⁻¹ s⁻¹
- CFA Efficacy [2, 4]: (+)
- rFAAH kinact/Ki [3]: 2610 M⁻¹ s⁻¹

Structure (SMILES): Cc1noc(NC(=O)N2CCC3(CC2)CC(c2cccc(Cl)c2)CO3)c1C (single isomer, unassigned) [Example 35, 3-(3-chlorophenol)-N-(3,4-dimethylisoxazol-5-yl)-1-oxa-8-azaspiro[4.5]decane-8-carboxamide]
- kinact/KI [1]: 2390 M⁻¹ s⁻¹
- CFA Efficacy [2, 4]: (+)
- rFAAH kinact/Ki [3]: 1560 M⁻¹ s⁻¹

Structure (SMILES): Cc1noc(NC(=O)N2CCC3(CC2)CC(c2cccc(Cl)c2)CO3)c1C (single isomer, unassigned) [Example 36, 3-(3-chlorophenyl)-N-(3,4-dimethylisoxazol-5-yl)-1-oxa-8-azaspiro[4.5]decane-8-carboxamide]
- hFAAH kinact/Ki [1]: 2590 M⁻¹ s⁻¹
- CFA Efficacy [2, 4]: (+)
- rFAAH kinact/Ki [3]: 3830 M⁻¹ s⁻¹

Structure (SMILES): Cc1noc(NC(=O)N2CCC3(CC2)CC(c2cccc(C(F)(F)F)c2)CO3)c1C (single isomer, unassigned) [Example 66, N-(3,4-dimethylisoxazol-5-yl)-3-[3-(trifluoromethyl)phenyl]-1-oxa-8-azaspiro[4.5]decane-8-carboxamide]
- kinact/KI [1]: 2140 M⁻¹ s⁻¹
- kinact/KI [3]: 2920 M⁻¹ s⁻¹

Structure (SMILES): Cc1noc(NC(=O)N2CCC3(CC2)CC(c2cccc(C(F)(F)F)c2)CO3)c1C (single isomer, unassigned) [Example 67, N-(3,4-dimethylisoxazol-5-yl)-3-[3-(trifluoromethyl)phenyl]-1-oxa-8-azaspiro[4.5]decane-8-carboxamide]
- hFAAH kinact/Ki [1]: 1330 M⁻¹ s⁻¹
- rFAAH kinact/Ki [3]: 2680 M⁻¹ s⁻¹

Structure (SMILES): CCCc1noc(NC(=O)N2CCC3(CC2)CC(c2ccc(Cl)c(Cl)c2)CO3)c1C (single isomer, unassigned) [Example 69, 3-(3,4-dichlorophenyl)-N-(3-n-propyl-4-methylisoxazol-5-yl)-1-oxa-8-azaspiro[4.5]decane-8-carboxamide]
- kinact/KI [1]: 960 M⁻¹ s⁻¹
- kinact/KI [3]: 4880 M⁻¹ s⁻¹

Structure (SMILES): Cc1nnc(NC(=O)N2CCC3(CC2)CC(c2cccc(OC(F)(F)F)c2)CO3)o1 (single isomer, unassigned) [Example 70, N-(5-methyl-1,3,4-oxadiazol-2-yl)-3-[3-(trifluoromethoxy)phenyl]-1-oxa-8-azaspiro[4.5]decane-8-carboxamide]
- kinact/KI [1]: 2110 M⁻¹ s⁻¹
- kinact/KI [3]: 2390 M⁻¹ s⁻¹

Structure (SMILES): Cc1noc(NC(=O)N2CCC3(CC2)C[C@H](c2cccc(-c4ccc(F)c(F)c4)c2)CO3)c1C [Example 58, (3R)-3-(3′,4′-difluorobiphenyl-3-yl)-N-(3,4-dimethylisoxazol-5-yl)-1-oxa-8-azaspiro[4.5]decane-8-carboxamide]
- kinact/KI [1]: 2780 M⁻¹ s⁻¹
- kinact/KI [3]: 707 M⁻¹ s⁻¹

Structure (SMILES): Cc1noc(NC(=O)N2CCC3(CC2)C[C@H](c2cccc(-c4ccc(OC(F)(F)F)cc4)c2)CO3)c1C [Example 64, (3R)—N-(3,4-dimethylisoxazol-5-yl)-3-[4′-(trifluoromethoxy)biphenyl-3-yl]-1-oxa-8-azaspiro[4.5]decane-8-carboxamide]
- kinact/KI [1]: 1490 M⁻¹ s⁻¹
- kinact/KI [3]: 588 M⁻¹ s⁻¹

Structure (SMILES): Cn1nnnc1NC(=O)N1CCC2(CC1)C[C@H](c1ccc(OCc3cccc(F)c3)cc1)CO2 [Example 86, (3R)-3-{4-[(3-fluorobenzyl)oxy]phenyl}-N-(1-methyl-1H-tetrazol-5-yl)-1-oxa-8-azaspiro[4.5]decane-8-carboxamide]
- kinact/KI [1]: 28400 M⁻¹ s⁻¹
- kinact/KI [3]: 11200 M⁻¹ s⁻¹

Structure (SMILES): Cc1noc(NC(=O)N2CCC3(CC2)C[C@H](c2cccc(-c4ccc(C(F)(F)F)cn4)c2)CO3)c1C [Example 98, (3R)—N-(3,4-dimethylisoxazol-5-yl)-3-{3-[5-(trifluoromethyl)pyridin-2-yl]phenyl}-1-oxa-8-azaspiro[4.5]decane-8-carboxamide]
- kinact/KI [1]: 2820 M⁻¹ s⁻¹
- kinact/KI [3]: 1630 M⁻¹ s⁻¹
